# Measured values: BindingDB's records for doi:10.1021/acs.jmedchem.0c01882 (Reviral, 2021)
# Assay: Inhibition of Respiratory syncytial virus A2 fusion protein expressed in HEK293T cells harboring GAL4-NF-kappaB assessed as reduction in cell-cell fusion by luciferase assay
row,SMILES,IC50 [nM]
1,CC(C)CCn1c(CN2C(=O)C3(CC3)c3ccccc32)nc2cc(CN)ccc21,0.4
2,CC(C)CCn1c(CN2C(=O)C3(CC3)c3c(Cl)cccc32)nc2cc(CN)ccc21,11
3,CC(C)CCn1c(CN2C(=O)C3(CC3)c3cc(F)ccc32)nc2cc(CN)ccc21,0.7
4,CC(C)CCn1c(CN2C(=O)C3(CC3)c3cc(Cl)ccc32)nc2cc(CN)ccc21,4.5
5,CC(C)CCn1c(CN2C(=O)C3(CC3)c3ccc(F)cc32)nc2cc(CN)ccc21,0.5
6,CC(C)CCn1c(CN2C(=O)C3(CC3)c3ccc(Cl)cc32)nc2cc(CN)ccc21,1.2
7,CC(C)CCn1c(CN2C(=O)C3(CC3)c3cccc(Cl)c32)nc2cc(CN)ccc21,47
8,CC(C)CCn1c(CN2C(=O)C3(CC3)c3cccc(F)c32)nc2cc(CN)ccc21,1.3
9,CS(=O)(=O)CCCn1c(CN2C(=O)C3(CC3)c3ccc(F)cc32)nc2cc(CN)ccc21,2.6
10,NCc1ccc2c(c1)nc(CN1C(=O)C3(CC3)c3ccc(F)cc31)n2CCCCO,1.5
11,NCc1ccc2c(c1)nc(CN1C(=O)C3(CC3)c3cccc(F)c31)n2CCCC(F)(F)F,1
12,NCc1ccc2c(c1)nc(CN1C(=O)C3(CC3)c3ccc(F)cc31)n2C1CCC(O)CC1 (stereo not drawn),2.6
13,NCc1ccc2c(c1)nc(CN1C(=O)C3(CC3)c3ccc(F)cc31)n2C1CCOCC1,1.2
14,N=C(N)c1ccc2c(c1)nc(CN1C(=O)C3(CC3)c3ccc(F)cc31)n2CCCC(F)(F)F,3
15,CCNC(=N)c1ccc2c(c1)nc(CN1C(=O)C3(CC3)c3ccc(F)cc31)n2CCCC(F)(F)F,641
16,N=C(N)NCc1ccc2c(c1)nc(CN1C(=O)C3(CC3)c3ccc(F)cc31)n2CCCC(F)(F)F,183
17,NC(=O)c1ccc2c(c1)nc(CN1C(=O)C3(CC3)c3ccc(F)cc31)n2CCCC(F)(F)F,71
18,O=C(O)c1ccc2c(c1)nc(CN1C(=O)C3(CC3)c3ccc(F)cc31)n2CCCC(F)(F)F,> 25000
19,CS(=O)(=O)c1ccc2c(c1)nc(CN1C(=O)C3(CC3)c3ccc(F)cc31)n2CCCC(F)(F)F,1070
20,CC(=O)NCc1ccc2c(c1)nc(CN1C(=O)C3(CC3)c3ccc(F)cc31)n2CCCC(F)(F)F,365
21,O=C1N(Cc2nc3ccccc3n2CCCC(F)(F)F)c2cc(F)ccc2C12CC2,37
22,O=C1N(Cc2nc3cc(Cl)ccc3n2CCCC(F)(F)F)c2cc(F)ccc2C12CC2,6.2
23,NCc1ccc2c(c1)nc(CN1C(=O)C3(CC3)c3ccc(F)cc31)n2CCCC(F)(F)F [Sisunatovir],0.9
